Measurements: ChEMBL document CHEMBL1201862, “PubChem BioAssay data set” (2004)
The source made the active and inactive calls.

Legend:
[1] = biological target: T1, Sphingosine 1-phosphate receptor 4 (Homo sapiens, UniProt O95977); test: S1P4 receptor agonists, human, late-stage follow-up, cell-based, fluorescence, synthesized compounds (AID 463107); type: functional
T1 sequence (O95977 whole entry): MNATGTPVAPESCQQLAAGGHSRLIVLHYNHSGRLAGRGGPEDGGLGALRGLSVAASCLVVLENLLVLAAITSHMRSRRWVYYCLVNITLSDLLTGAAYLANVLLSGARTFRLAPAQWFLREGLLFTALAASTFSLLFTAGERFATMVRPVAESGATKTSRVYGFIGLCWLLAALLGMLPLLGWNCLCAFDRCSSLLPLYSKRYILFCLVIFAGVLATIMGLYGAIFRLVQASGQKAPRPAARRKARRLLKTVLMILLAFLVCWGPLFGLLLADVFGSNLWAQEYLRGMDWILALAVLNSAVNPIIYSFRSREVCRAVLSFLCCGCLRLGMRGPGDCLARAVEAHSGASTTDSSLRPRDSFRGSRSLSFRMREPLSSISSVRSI

BJ [2] = test: cytotoxicity toward BJ-TERT fibroblasts, dose response, cell-based, RAS-independent, luminescence (AID 1933); type: functional; conditions: Homo sapiens
BJ [3] = test: cells; type: functional, cell-based; conditions: Homo sapiens
[4] = inhibitors of intracellular T. cruzi replication, confirmation, NIH3T3 host cells, beta-gal luminescence (AID 2044); type: functional, cell-based;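 note: intracellular parasites grown in NIH/3T3 mouse fibroblasts as host cells; luminescent beta-galactosidase reporter signal from transgenic T. cruzi replicating inside host cells; inhibitors lower the luminescence signal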
[5] = microbe, parasite or virus in culture; type: functional; conditions: Mycobacterium tuberculosis
[6] = cytotoxicity toward NIH3T3 fibroblasts, dose response, counter-screen, cell-based, ATP luminescence, mouse fibroblasts (AID 2010); type: functional;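 note: cells exposed to compound for about 90 hours before reading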
[7] = biological target: T1, Sphingosine 1-phosphate receptor 4; test: Late stage fluorescence dose response cell-based screening assay for antagonists of the Sphingosine 1-Phosphate Receptor 4 (S1P4). [Related pubchem assays: 1524 (Confirmation screen (S1P4 antagonists).), 1510 (Primary screen (S1P4 antagonists).), 1853 (Summary AID (S1P4 antagonists).), 1692 (Dose response screen (S1P4 antagonists).)]; type: functional
[8] = biological target: T1, Sphingosine 1-phosphate receptor 4; test: Fluorescence dose response cell-based high throughput screening assay for antagonists of the Sphingosine 1-Phosphate Receptor 4 (S1P4). [Related pubchem assays: 1524 (Confirmation in triplicates.), 1510 (Primary screen.)]; type: functional
BJ [9] = test: cytotoxicity toward BJ-TERT-LT-ST fibroblasts, dose response, cell-based, RAS-independent, luminescence (AID 1935); type: functional; conditions: Homo sapiens;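 note: BJ fibroblasts immortalized with TERT plus LT and ST oncogenes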
[10] = cytotoxicity toward DRD oncogenic fibroblasts, dose response, cell-based, non-viral oncogenic, luminescence (AID 1934); type: functional; conditions: Homo sapiens
[11] = biological target: Sphingosine 1-phosphate receptor 1 (Homo sapiens, UniProt P21453); type: functional;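 note: Tango beta-arrestin reporter U2OS cells stimulated with S1P near its EC80; inhibitor potency meaning antagonism of receptor activation by the natural agonist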
[12] = biological target: Neurotensin receptor type 1 (Homo sapiens, UniProt P30989); type: functional;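 note: Image-based confirmatory dose-response assay measuring agonist activity at NTR1; NTR1-expressing U2OS osteosarcoma cells imaged for beta-arrestin GFP spot formation; agonist potency where compounds increase beta-arrestin recruitment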
INS1 = test: beta cell apoptosis inhibitors, cytokine rescue, dose response, luminescence, retest (AID 449756); type: functional, cell-based; conditions: Rattus norvegicus;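 note: cell death triggered by IL-1 beta plus TNF-alpha plus IFN-gamma mixture; protective hits raise ATP signal compared with cytokine alone wells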
[13] = Shn3 3'UTR reporter inhibitors, dose response, cell-based, Clone20 osteoblasts, firefly luciferase, cherry-picked (AID 624132); type: functional;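 note: firefly luciferase luminescence from reporter carrying the Shn3 3'UTR in osteoblasts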
[14] = HepG2 cell cytotoxicity, dose response, cytotoxicity control for Shn3 inhibitor project, CellTiter-Glo, cherry-picked (AID 624134); type: functional, cell-based
[15] = control 3'UTR Renilla luciferase suppression, dose response, counter-screen for Shn3 inhibitor project, cell-based, Clone20-Shn3RL, cherry-picked (AID 624133); type: functional
Tumor necrosis factor = Tumor necrosis factor (Homo sapiens, UniProt P01375); test: TNFa-triggered NF-kB activation inhibitors, SAR follow-up, cell-based, revised (AID 2337); type: functional
[16] = biological target: T2, Nucleotide-binding oligomerization domain-containing protein 1 (Homo sapiens, UniProt Q9Y239); test: NOD1 signaling inhibitors, SAR follow-up, revised (AID 2333); type: functional
T2 sequence (Q9Y239 whole entry): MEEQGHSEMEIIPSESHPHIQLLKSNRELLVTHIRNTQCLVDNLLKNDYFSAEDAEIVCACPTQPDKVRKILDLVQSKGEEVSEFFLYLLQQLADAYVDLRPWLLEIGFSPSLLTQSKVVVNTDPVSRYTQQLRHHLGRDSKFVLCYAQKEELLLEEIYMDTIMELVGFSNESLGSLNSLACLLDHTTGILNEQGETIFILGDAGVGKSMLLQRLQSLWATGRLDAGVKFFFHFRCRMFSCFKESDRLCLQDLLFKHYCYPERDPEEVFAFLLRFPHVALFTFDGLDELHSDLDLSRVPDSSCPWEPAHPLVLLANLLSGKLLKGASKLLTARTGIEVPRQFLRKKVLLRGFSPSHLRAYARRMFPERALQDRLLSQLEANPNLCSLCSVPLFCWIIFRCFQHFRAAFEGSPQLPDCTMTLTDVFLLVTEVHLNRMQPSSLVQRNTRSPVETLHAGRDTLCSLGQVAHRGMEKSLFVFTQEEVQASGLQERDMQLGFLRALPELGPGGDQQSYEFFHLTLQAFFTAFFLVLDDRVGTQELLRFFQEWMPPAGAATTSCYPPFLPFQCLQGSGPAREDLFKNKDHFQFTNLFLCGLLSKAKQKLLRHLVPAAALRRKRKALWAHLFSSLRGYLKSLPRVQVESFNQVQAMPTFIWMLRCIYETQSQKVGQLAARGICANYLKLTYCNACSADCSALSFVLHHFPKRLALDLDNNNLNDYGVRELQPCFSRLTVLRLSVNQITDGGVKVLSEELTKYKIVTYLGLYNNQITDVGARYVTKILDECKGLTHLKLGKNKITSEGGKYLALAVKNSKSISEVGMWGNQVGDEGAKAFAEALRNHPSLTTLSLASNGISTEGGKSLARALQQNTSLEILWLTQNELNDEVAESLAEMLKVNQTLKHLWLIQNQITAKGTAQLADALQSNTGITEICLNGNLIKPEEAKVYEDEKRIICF

[17] = biological target: Nucleotide-binding oligomerization domain-containing protein 2 (Homo sapiens, UniProt Q9HC29); test: PubChem AID 2334; type: functional
HEK293 = test: cells; conditions: Homo sapiens;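 note: cells exposed to compound for 14 hours overnight before viability readout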
Large T antigen = Large T antigen (Simian virus 40, UniProt P03070); type: functional, Betapolyomavirus macacae;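 note: Confirmatory-stage PubChem screen for compounds that inhibit SV40 T antigen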
HeLa = test: HeLa cell cytotoxicity, dose response, cytotoxicity control, 24 h, cherry-picked samples (AID 504726); type: functional, cell-based; conditions: Homo sapiens;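 note: potency for cytotoxicity as loss of luminescence signal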
ORF 73 = biological target: T3, ORF 73 (Human herpesvirus 8, UniProt O40947); test: inhibitors of C-LANA binding to LBS DNA, dose response, biochemical, fluorescence polarization, cherry-picked samples (AID 504725); set-up: species or system Human gammaherpesvirus 8;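 note: fluorescence polarization of a labeled DNA duplex reporting LANA DNA binding; potency is for inhibitors that block LANA binding to the DNA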
T3 sequence (O40947 whole entry): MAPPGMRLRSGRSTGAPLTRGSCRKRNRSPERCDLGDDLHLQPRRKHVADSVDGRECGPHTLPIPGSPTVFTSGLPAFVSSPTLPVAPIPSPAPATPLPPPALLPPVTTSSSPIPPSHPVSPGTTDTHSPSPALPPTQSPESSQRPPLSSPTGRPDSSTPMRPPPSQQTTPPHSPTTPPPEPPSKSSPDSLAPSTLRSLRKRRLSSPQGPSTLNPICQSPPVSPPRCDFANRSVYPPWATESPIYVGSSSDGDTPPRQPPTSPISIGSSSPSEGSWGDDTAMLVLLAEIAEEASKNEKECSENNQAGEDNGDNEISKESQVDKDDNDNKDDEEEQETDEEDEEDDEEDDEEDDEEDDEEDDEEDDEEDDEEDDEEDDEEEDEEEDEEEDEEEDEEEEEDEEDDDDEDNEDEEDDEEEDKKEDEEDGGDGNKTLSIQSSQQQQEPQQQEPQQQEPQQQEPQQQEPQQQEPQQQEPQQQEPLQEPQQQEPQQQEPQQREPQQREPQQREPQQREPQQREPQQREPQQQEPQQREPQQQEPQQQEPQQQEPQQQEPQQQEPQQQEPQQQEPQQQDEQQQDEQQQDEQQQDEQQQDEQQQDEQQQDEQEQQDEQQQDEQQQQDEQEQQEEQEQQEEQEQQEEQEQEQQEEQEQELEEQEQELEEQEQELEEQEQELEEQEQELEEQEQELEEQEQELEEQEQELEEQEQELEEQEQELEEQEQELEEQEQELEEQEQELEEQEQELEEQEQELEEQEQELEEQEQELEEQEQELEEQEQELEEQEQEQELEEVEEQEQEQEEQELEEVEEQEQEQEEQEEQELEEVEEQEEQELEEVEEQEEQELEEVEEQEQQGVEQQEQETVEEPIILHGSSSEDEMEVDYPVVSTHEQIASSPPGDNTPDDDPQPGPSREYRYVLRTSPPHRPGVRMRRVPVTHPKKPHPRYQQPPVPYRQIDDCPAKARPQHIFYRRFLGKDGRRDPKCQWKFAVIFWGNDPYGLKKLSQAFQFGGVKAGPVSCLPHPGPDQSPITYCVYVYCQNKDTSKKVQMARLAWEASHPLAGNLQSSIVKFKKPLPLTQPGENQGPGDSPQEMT

[18] = biological target: Intestinal-type alkaline phosphatase (Homo sapiens, UniProt P09923); test: activation of human intestinal alkaline phosphatase – biochemical, dose response (AID 488873); type: functional
[19] = biological target: Intestinal-type alkaline phosphatase (Mus musculus, UniProt P24822); test: PubChem AID 488785; type: functional
[20] = biological target: T4, Alkaline phosphatase, tissue-nonspecific isozyme (Homo sapiens, UniProt P05186); test: TNAP enzyme activators, dose response, selectivity assay for mouse IAP activator project, biochemical, TNAP isozyme, mouse IAP uHTS hits (AID 488880); type: functional
T4 sequence (P05186 whole entry): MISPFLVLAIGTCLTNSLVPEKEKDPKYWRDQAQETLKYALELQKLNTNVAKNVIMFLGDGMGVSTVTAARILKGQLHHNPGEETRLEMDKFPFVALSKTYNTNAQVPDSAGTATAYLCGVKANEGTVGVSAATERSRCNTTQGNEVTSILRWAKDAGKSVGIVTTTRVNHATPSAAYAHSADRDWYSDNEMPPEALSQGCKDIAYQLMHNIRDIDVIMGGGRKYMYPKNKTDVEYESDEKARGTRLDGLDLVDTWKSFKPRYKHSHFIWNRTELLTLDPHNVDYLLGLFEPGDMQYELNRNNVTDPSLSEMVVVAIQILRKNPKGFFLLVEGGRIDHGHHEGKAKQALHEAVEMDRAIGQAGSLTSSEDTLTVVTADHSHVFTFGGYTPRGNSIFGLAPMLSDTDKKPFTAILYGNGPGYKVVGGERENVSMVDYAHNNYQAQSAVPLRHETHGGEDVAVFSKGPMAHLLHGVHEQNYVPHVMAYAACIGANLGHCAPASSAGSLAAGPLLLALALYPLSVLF

[21] = biological target: Scavenger receptor class B member 1 (Mus musculus, UniProt Q61009); test: inhibitors of SR-BI mediated HDL lipid uptake, dose response, ldlA[mSR-BI] cells, fluorescence, cherry pick (AID 493194); type: functional, cell-based;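 note: cellular uptake of fluorescent DiI-labeled HDL measured as cell fluorescence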
Scavenger receptor class B member 1, sequence (Q61009 whole entry): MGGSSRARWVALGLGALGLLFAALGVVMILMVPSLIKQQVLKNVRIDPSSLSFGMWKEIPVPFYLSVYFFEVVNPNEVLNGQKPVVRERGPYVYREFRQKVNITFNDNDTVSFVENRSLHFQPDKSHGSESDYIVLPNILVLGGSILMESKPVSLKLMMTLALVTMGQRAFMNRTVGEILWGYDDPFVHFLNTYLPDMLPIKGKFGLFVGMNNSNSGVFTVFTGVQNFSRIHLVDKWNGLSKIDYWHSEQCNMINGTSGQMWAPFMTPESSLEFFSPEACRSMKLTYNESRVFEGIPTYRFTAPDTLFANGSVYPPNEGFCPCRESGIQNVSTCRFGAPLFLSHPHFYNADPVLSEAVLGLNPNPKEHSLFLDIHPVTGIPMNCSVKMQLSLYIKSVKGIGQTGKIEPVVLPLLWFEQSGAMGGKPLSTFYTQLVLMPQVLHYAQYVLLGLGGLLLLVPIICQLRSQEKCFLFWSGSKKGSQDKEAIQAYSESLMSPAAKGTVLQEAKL

Nucleotide-binding oligomerization domain-containing protein 2, sequence (Q9HC29 whole entry, the tested form may be a part): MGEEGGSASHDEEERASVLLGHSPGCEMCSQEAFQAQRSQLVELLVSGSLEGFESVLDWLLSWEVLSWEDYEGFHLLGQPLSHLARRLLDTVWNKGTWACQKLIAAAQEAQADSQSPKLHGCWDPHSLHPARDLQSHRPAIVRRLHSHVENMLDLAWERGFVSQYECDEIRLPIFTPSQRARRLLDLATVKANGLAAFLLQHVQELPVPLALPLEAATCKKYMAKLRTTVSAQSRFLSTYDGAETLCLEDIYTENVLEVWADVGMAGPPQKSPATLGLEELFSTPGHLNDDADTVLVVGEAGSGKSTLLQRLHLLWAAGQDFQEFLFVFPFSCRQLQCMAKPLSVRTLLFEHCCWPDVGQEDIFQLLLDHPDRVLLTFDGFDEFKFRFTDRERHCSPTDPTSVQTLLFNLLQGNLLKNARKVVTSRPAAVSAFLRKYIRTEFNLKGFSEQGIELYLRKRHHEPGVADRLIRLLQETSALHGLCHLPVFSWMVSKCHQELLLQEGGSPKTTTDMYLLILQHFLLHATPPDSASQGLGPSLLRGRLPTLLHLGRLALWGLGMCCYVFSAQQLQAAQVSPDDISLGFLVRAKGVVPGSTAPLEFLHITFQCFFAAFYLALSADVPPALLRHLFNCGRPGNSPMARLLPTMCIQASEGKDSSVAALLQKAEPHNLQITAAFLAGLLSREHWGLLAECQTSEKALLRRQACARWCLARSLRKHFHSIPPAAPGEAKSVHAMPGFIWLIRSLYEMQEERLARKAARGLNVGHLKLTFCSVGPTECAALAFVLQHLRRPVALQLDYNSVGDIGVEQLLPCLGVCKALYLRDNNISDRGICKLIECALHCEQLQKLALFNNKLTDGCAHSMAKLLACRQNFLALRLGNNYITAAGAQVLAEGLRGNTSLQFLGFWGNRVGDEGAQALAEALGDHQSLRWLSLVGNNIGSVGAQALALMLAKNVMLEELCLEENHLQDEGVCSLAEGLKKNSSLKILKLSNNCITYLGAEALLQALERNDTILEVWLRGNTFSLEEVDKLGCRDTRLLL
Large T antigen, sequence (P03070 whole entry): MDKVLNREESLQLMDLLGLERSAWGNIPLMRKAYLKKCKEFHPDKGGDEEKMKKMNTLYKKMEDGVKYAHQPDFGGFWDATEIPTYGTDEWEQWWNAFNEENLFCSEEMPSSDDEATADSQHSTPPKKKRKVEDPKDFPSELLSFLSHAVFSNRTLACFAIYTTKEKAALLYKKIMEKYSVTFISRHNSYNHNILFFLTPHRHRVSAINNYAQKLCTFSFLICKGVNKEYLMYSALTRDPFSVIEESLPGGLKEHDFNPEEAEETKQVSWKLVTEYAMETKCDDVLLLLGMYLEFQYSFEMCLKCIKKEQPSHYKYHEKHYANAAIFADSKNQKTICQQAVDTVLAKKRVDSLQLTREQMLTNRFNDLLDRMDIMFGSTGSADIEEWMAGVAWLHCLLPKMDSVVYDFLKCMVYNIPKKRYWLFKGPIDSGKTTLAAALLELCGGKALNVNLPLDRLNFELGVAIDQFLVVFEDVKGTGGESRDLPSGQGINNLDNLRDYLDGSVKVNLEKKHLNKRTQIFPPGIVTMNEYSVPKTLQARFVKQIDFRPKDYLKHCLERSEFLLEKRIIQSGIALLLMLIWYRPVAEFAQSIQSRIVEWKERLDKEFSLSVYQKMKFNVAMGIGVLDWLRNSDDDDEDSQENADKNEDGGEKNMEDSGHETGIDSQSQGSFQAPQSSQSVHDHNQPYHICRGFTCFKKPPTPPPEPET
Neurotensin receptor type 1, sequence (P30989 whole entry): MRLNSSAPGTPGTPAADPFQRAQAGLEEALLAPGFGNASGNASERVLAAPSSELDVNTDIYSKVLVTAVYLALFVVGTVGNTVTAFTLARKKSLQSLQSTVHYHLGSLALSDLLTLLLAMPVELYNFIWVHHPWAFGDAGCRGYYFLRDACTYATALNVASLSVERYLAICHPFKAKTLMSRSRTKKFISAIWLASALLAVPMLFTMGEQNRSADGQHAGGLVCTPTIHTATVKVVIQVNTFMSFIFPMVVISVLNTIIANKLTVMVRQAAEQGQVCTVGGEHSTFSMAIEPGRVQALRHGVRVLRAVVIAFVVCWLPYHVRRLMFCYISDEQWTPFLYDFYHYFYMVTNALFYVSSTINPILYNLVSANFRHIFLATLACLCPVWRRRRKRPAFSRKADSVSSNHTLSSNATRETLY
Tumor necrosis factor, sequence (P01375 whole entry, the tested form may be a part): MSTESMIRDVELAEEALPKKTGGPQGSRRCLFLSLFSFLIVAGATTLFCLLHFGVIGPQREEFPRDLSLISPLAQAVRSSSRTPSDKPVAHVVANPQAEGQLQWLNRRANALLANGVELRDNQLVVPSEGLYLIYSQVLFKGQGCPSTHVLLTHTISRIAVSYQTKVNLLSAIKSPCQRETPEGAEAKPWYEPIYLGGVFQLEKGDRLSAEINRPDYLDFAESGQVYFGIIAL
Sphingosine 1-phosphate receptor 1, sequence (P21453 whole entry): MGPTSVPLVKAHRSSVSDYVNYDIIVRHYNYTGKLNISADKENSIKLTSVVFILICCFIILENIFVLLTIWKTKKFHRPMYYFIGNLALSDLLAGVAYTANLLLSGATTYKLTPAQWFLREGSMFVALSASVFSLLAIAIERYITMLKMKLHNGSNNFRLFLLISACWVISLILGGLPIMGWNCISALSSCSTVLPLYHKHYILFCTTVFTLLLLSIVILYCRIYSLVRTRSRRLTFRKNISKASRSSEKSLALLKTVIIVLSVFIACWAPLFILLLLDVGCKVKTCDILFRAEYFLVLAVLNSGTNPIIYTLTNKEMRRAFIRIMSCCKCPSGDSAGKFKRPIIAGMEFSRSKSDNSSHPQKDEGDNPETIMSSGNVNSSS
Intestinal-type alkaline phosphatase (Homo sapiens, UniProt P09923), sequence (P09923 whole entry): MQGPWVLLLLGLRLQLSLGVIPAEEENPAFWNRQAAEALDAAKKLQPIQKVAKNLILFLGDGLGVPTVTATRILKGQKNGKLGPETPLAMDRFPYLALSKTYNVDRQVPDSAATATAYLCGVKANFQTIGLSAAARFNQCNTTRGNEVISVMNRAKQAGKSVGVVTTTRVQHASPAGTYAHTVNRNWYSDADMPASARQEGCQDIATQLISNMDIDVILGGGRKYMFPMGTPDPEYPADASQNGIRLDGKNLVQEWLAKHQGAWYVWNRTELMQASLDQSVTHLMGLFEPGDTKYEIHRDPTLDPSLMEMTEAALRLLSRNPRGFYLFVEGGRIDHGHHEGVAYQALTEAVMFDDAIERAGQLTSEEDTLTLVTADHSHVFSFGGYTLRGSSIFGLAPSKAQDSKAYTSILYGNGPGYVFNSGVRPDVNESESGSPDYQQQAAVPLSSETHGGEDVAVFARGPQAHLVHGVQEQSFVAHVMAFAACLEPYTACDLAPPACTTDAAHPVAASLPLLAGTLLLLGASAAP
Intestinal-type alkaline phosphatase (Mus musculus, UniProt P24822), sequence (P24822 whole entry): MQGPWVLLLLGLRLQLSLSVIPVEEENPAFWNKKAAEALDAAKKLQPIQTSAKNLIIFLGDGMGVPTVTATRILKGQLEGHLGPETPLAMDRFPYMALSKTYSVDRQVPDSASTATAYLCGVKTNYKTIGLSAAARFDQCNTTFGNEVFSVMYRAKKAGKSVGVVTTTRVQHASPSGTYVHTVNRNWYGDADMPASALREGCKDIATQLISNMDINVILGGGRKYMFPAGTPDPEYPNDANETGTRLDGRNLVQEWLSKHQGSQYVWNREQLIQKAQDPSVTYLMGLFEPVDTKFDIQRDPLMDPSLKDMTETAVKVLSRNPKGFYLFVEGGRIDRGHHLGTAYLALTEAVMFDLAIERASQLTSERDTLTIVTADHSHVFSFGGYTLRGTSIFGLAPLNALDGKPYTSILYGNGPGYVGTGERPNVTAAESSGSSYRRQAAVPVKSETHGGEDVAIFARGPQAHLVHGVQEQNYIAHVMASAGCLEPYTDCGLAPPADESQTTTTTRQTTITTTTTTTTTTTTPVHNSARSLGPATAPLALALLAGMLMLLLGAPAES

Q: With `O=[N+]([O-])c1ncccc1OCCOc1ccc(Cl)cc1Cl` as the molecule, how does the EC50 [1] read?
A: The EC50 was 29.8 µM (inactive).

Q: What does the source list for `O=C(/C(=C/c1ccc(Cl)cc1)c1nc2ccccc2[nH]1)c1cccs1`?
A: EC50 (BJ [2]): 4.27 µM (inconclusive); EC50 (BJ [3]): 9.34 µM (active); EC50 [4]: 1.03 µM (active); CC50 [5]: 2.9 µM (active); EC50 [6]: 5.47 µM (active); IC50 [7]: 0.737 µM (active); IC50 [8]: 0.37 µM (active); EC50 (BJ [9]): 3.71 µM (inconclusive); EC50 [10]: 5.28 µM (inconclusive); IC50 [11]: 6.77 µM (active); EC50 [12]: 12.6 µM (active); AC50 (INS1): 3.71 µM (active); AC50 [13]: 2.66 µM (active); AC50 [14]: 8.26 µM (active); AC50 [15]: 8.35 µM (active)

Q: Which IC50 (Tumor necrosis factor) does the source give for `CCC1CCc2c(sc(NC(=O)c3ccccc3Br)c2C(=O)OC)C1` (stereo unspecified) here?
A: Its IC50 is > 20 µM (inactive).

Q: And the IC50 [16]?
A: The IC50 was > 20 µM (inactive).

Q: And the IC50 [17]?
A: Its IC50 is > 20 µM (inactive).

Q: And the IC50 (HEK293)?
A: The IC50 was > 20 µM (inactive).

Q: With `N=C1/C(=C\c2ccc(O)c(O)c2)C(=O)N=C2SC(CC(=O)N3CCCCC3)=NN12` as the molecule, how does the IC50 (Large T antigen) read?
A: The IC50 was 1.92 µM (active).

Q: What about the AC50 (HeLa) of the same molecule?
A: The AC50 was 267 µM (active).

Q: And the AC50 (ORF 73)?
A: Its AC50 is 2.44 µM (active).

Q: What about the EC50 [18] of the same molecule?
A: Its EC50 is 21.3 µM (active).

Q: And the IC50 [19]?
A: Its IC50 is 6.98 µM (active).

Q: What about the EC50 [20] of the same molecule?
A: The EC50 was 21.5 µM (active).

Q: Which EC50 (BJ [2]) does the source give for `Cc1c(C(=O)OCCOC(C)C)[nH]c2c1C(=O)CC(c1ccco1)C2` (stereo unspecified) here?
A: The EC50 was 0.37 µM (active).

Q: What about the EC50 (BJ [3]) of the same molecule?
A: Its EC50 is 1.71 µM (inconclusive).

Q: What about the EC50 (BJ [9]) of the same molecule?
A: Its EC50 is 0.73 µM (inconclusive).

Q: What about the EC50 [10] of the same molecule?
A: Its EC50 is 1.28 µM (inconclusive).

Q: What about the AC50 [21] of the same molecule?
A: Its AC50 is 34 µM (active).
